≈ marks a conversion by molar mass, not a printed value.

For the first assay, the system named is Bacillus subtilis. The experiment in a line: In vitro antimicrobial activity against Bacillus subtilis ATCC 6633.
Details: not given
The class given is functional.
`CO/N=C1/CN(c2c(F)cc3c(=O)c(C(=O)O)cn(C4CC4)c3c2Cl)CC1N` (centres undefined) registered an MIC not above 0.008 mg/L.
On the same count and under the same terms, to `CO/N=C1\CN(c2c(F)c(N)c3c(=O)c(C(=O)O)cn(C4CC4)c3c2F)CC1N` (centres undefined) belongs not above 0.008 mg/L.

A further assay deals with Escherichia coli. In words: In vitro antimicrobial activity against Escherichia coli 3190Y. It is filed as functional.
Details: not given
The molecule `CO/N=C1/CN(c2c(F)cc3c(=O)c(C(=O)O)cn(C4CC4)c3c2Cl)CC1N` (centres undefined) showed an MIC not above 0.008 mg/L.
Regarding `CO/N=C1\CN(c2c(F)c(N)c3c(=O)c(C(=O)O)cn(C4CC4)c3c2F)CC1N` (centres undefined), the MIC is not above 0.008 mg/L.

A further assay deals with Klebsiella aerogenes. The experiment in a line: In vitro antimicrobial activity against Klebsiella aerogenes 1076E. The class given is functional.
Details: not given
Regarding `CO/N=C1/CN(c2c(F)cc3c(=O)c(C(=O)O)cn(C4CC4)c3c2Cl)CC1N` (centres undefined), inhibition of growth (MIC) required 0.25 mg/L (≈ 0.612 µM).
On the same count and under the same terms, then `CO/N=C1\CN(c2c(F)c(N)c3c(=O)c(C(=O)O)cn(C4CC4)c3c2F)CC1N` (centres undefined), with 0.25 mg/L (≈ 0.614 µM).

Another assay deals with Enterobacter cloacae. In words: In vitro antimicrobial activity against Enterobacter cloacae p99. The class given is functional.
Details: not given
Molecule `CO/N=C1/CN(c2c(F)cc3c(=O)c(C(=O)O)cn(C4CC4)c3c2Cl)CC1N` (centres undefined) showed an MIC of 0.016 mg/L (≈ 0.0391 µM).
The same measure, in the same setting: then `CO/N=C1\CN(c2c(F)c(N)c3c(=O)c(C(=O)O)cn(C4CC4)c3c2F)CC1N` (centres undefined), with not above 0.008 mg/L.

Another assay concerns Citrobacter koseri. In words: In vitro antimicrobial activity against Citrobacter diversus 2046E.
Details: not given
It is filed as functional.
In turn, `CO/N=C1/CN(c2c(F)cc3c(=O)c(C(=O)O)cn(C4CC4)c3c2Cl)CC1N` (centres undefined) showed an MIC of 0.063 mg/L (≈ 0.154 µM).
Turning to `CO/N=C1\CN(c2c(F)c(N)c3c(=O)c(C(=O)O)cn(C4CC4)c3c2F)CC1N` (centres undefined), the lowest concentration to inhibit growth (MIC) was 0.063 mg/L (≈ 0.155 µM).

In a further assay the test system is Micrococcus luteus. The experiment in a line: In vitro antimicrobial activity against Micrococcus luteus ATCC 9341. The class given is functional.
Details: not given
`CO/N=C1/CN(c2c(F)cc3c(=O)c(C(=O)O)cn(C4CC4)c3c2Cl)CC1N` (centres undefined) gave an MIC of 0.13 mg/L (≈ 0.318 µM).
`CO/N=C1\CN(c2c(F)c(N)c3c(=O)c(C(=O)O)cn(C4CC4)c3c2F)CC1N` (centres undefined) returned an MIC of 0.5 mg/L (≈ 1.23 µM).

Another assay has as its system Staphylococcus aureus. In words: In vitro antimicrobial activity against Staphylococcus aureus 241. It is filed as functional.
Details: not given
Molecule `CO/N=C1/CN(c2c(F)cc3c(=O)c(C(=O)O)cn(C4CC4)c3c2Cl)CC1N` (centres undefined) displayed an MIC of 0.5 mg/L (≈ 1.22 µM).
Same read-out and setting: then `CO/N=C1\CN(c2c(F)c(N)c3c(=O)c(C(=O)O)cn(C4CC4)c3c2F)CC1N` (centres undefined), with 2 mg/L (≈ 4.91 µM).

The subject of the next assay is Escherichia coli. The experiment in a line: In vitro antimicrobial activity against Escherichia coli TEM5 3739E. The class given is functional.
Details: not given
Regarding `CO/N=C1/CN(c2c(F)cc3c(=O)c(C(=O)O)cn(C4CC4)c3c2Cl)CC1N` (centres undefined), the lowest concentration to inhibit growth (MIC) was 0.25 mg/L (≈ 0.612 µM).
As for `CO/N=C1\CN(c2c(F)c(N)c3c(=O)c(C(=O)O)cn(C4CC4)c3c2F)CC1N` (centres undefined), 0.13 mg/L (≈ 0.319 µM) was the least that counted as inhibitory (MIC).

The next assay concerns Staphylococcus aureus. The experiment in a line: In vitro antimicrobial activity against Staphylococcus aureus giorgio. It is filed as functional.
Details: not given
In turn, `CO/N=C1/CN(c2c(F)cc3c(=O)c(C(=O)O)cn(C4CC4)c3c2Cl)CC1N` (centres undefined) had an MIC of 0.016 mg/L (≈ 0.0391 µM).
`CO/N=C1\CN(c2c(F)c(N)c3c(=O)c(C(=O)O)cn(C4CC4)c3c2F)CC1N` (centres undefined) came in with an MIC not above 0.008 mg/L.

The next assay concerns Staphylococcus aureus. The experiment in a line: In vitro antimicrobial activity against Staphylococcus aureus 77. The class given is functional.
Details: not given
For the molecule `CO/N=C1/CN(c2c(F)cc3c(=O)c(C(=O)O)cn(C4CC4)c3c2Cl)CC1N` (centres undefined), the MIC turned out to be 0.016 mg/L (≈ 0.0391 µM).
On the same count and under the same terms, then `CO/N=C1\CN(c2c(F)c(N)c3c(=O)c(C(=O)O)cn(C4CC4)c3c2F)CC1N` (centres undefined), with 0.031 mg/L (≈ 0.0761 µM).

The next assay relates to Pseudomonas aeruginosa. The experiment in a line: In vitro antimicrobial activity against Pseudomonas aeruginosa 1012E. The class given is functional.
Details: not given
For `CO/N=C1/CN(c2c(F)cc3c(=O)c(C(=O)O)cn(C4CC4)c3c2Cl)CC1N` (centres undefined), it took 2 mg/L (≈ 4.89 µM) to inhibit growth (MIC).
On the same count and under the same terms, to `CO/N=C1\CN(c2c(F)c(N)c3c(=O)c(C(=O)O)cn(C4CC4)c3c2F)CC1N` (centres undefined) belongs 1 mg/L (≈ 2.45 µM).

The subject of the next assay is Escherichia coli. In words: In vitro antimicrobial activity against Escherichia coli 10536.
Details: not given
Regarding `CO/N=C1/CN(c2c(F)cc3c(=O)c(C(=O)O)cn(C4CC4)c3c2Cl)CC1N` (centres undefined), inhibition of growth (MIC) required 0.016 mg/L (≈ 0.0391 µM).

Another assay concerns Staphylococcus epidermidis. In words: In vitro antimicrobial activity against Staphylococcus epidermis 178. It is filed as functional.
Details: not given
In the case of `CO/N=C1/CN(c2c(F)cc3c(=O)c(C(=O)O)cn(C4CC4)c3c2Cl)CC1N` (centres undefined), the MIC was 0.5 mg/L (≈ 1.22 µM).
The same measure, in the same setting: then `CO/N=C1\CN(c2c(F)c(N)c3c(=O)c(C(=O)O)cn(C4CC4)c3c2F)CC1N` (centres undefined), with 2 mg/L (≈ 4.91 µM).

A further assay relates to Salmonella typhimurium. In words: In vitro antimicrobial activity against Salmonella Typhimurium 14028. The class given is functional, Salmonella enterica subsp. enterica serovar Typhimurium. The following applies: Salmonella enterica.
Molecule `CO/N=C1/CN(c2c(F)cc3c(=O)c(C(=O)O)cn(C4CC4)c3c2Cl)CC1N` (centres undefined) displayed an MIC of 0.13 mg/L (≈ 0.318 µM).
The same measure, in the same setting: to `CO/N=C1\CN(c2c(F)c(N)c3c(=O)c(C(=O)O)cn(C4CC4)c3c2F)CC1N` (centres undefined) belongs 0.063 mg/L (≈ 0.155 µM).

In another assay the test system is Escherichia coli. In words: In vitro antimicrobial activity against Escherichia coli 851E. It is filed as functional.
Details: not given
For `CO/N=C1/CN(c2c(F)cc3c(=O)c(C(=O)O)cn(C4CC4)c3c2Cl)CC1N` (centres undefined), it took 0.031 mg/L (≈ 0.0758 µM) to inhibit growth (MIC).
In turn, `CO/N=C1\CN(c2c(F)c(N)c3c(=O)c(C(=O)O)cn(C4CC4)c3c2F)CC1N` (centres undefined) showed an MIC of 0.031 mg/L (≈ 0.0761 µM).

The subject of another assay is Staphylococcus epidermidis. In words: In vitro antimicrobial activity against Staphylococcus epidermis 887E. The class given is functional.
Details: not given
`CO/N=C1/CN(c2c(F)cc3c(=O)c(C(=O)O)cn(C4CC4)c3c2Cl)CC1N` (centres undefined) registered an MIC of 0.016 mg/L (≈ 0.0391 µM).
`CO/N=C1\CN(c2c(F)c(N)c3c(=O)c(C(=O)O)cn(C4CC4)c3c2F)CC1N` (centres undefined) returned an MIC of 0.016 mg/L (≈ 0.0393 µM).

In another assay the test system is Acinetobacter calcoaceticus. The experiment in a line: In vitro antimicrobial activity against Acinetobacter calcoaceticus 15473. It is filed as functional.
Details: not given
Take `CO/N=C1/CN(c2c(F)cc3c(=O)c(C(=O)O)cn(C4CC4)c3c2Cl)CC1N` (centres undefined): the MIC was 0.031 mg/L (≈ 0.0758 µM).
On to `CO/N=C1\CN(c2c(F)c(N)c3c(=O)c(C(=O)O)cn(C4CC4)c3c2F)CC1N` (centres undefined), for which the MIC is 0.031 mg/L (≈ 0.0761 µM).

For another assay, the system named is Escherichia coli. In words: In vitro antimicrobial activity against Escherichia coli 10536. It is filed as functional.
Details: not given
For the molecule `CO/N=C1\CN(c2c(F)c(N)c3c(=O)c(C(=O)O)cn(C4CC4)c3c2F)CC1N` (centres undefined), the MIC is not above 0.008 mg/L.
